Here are results for three molecules from ChEMBL document CHEMBL1139944, “Synthesis and evaluation of new difluoromethyl azoles as antileishmanial agents” (Eur J Med Chem, 2007).

The assay deals with Leishmania amazonensis. Put plainly: Antileishmanial activity against Leishmania amazonensis promastigote by MTT method. Format: functional, organism-based. (In general: Tetrazolium assays rely on reduction of a dye to a coloured formazan, in cell work by metabolically active cells.)

SMILES strings stand for the structures.

For the molecule `Cc1ncc(C(F)F)n1-c1ccc(Cl)cc1`, half-maximal inhibition (IC50) was put at 1700 nM.

Regarding `FC(F)c1cn(-c2cccc(Cl)c2)nn1`, 2600 nM corresponded to half-maximal inhibition (IC50).

For the molecule `O=Cc1cn(-c2cccc(Cl)c2)nn1`, inhibition was half-maximal at 2800 nM (IC50).
